Patent publication US9458173B2, “Amides of 2-amino-4-arylthiazole compounds and their salts” (GLENMARK PHARMACEUTICALS S.A., priority 2012, dated 2016)
Converted amounts (≈) assume the structure as drawn. Where two headings read alike, the source gives them in different places.

How the values were obtained:
Type in all cases: physicochemical
[1] = Hygroscopicity study, moisture content by Karl Fischer method; details: for moisture content, initial value: before exposure to humidity; for moisture content increase: 25° C., 48 hrs
Procedure: Hygroscopicity study was performed under the following conditions: The material was exposed to relative humidity (for example 60%, 80%, 90%) at 25° C. condition. The material was thinly spread in dried and pre-weighed Petri plate. The plate was exposed to the relative humidity conditions at 25° C. The Petri plate was withdrawn at regular intervals and weighed. Withdrawn samples were tested for description and moisture content by Karl Fischer method.

[2] = Stability studies of salts under storage, degradation products by HPLC
Excerpt: The salts of compound of formula II were stored under conditions as shown in Table 11 and a total amount of degradation products (related substances) and single maximum impurity formed during storage was estimated according to following protocol:
Apparatus: A High Performance Liquid Chromatograph equipped with quaternary gradient pumps, variable wavelength UV detector attached with data recorder and Integrator software or equivalent.
Column: Phenomenex Prodigy, 250 mm×4.6 mm, 5.0 or equivalent
Mobile phase: A: Buffer B: Acetonitrile (for sodium salt), acetonitrile:methanol (6:4) for potassium salt
Buffer: 0.1% Formic acid in water
Detection wavelength: UV 265 nm
Column temperature: 40° C.
10 mg of compound was weighed and transferred it into a 20 mL volumetric flask. Dimethylsulfoxide was added and it was sonicated to dissolve. The diluent was added to make up the solution to the mark of the flask.
The equal volumes of blank (diluent) and test solution were separately injected into the liquid chromatograph. The responses were recorded eliminating the peaks due to blank and the chromatographic purity by area was calculated by normalization method.
The salts of the compound of formula II were stored under conditions as shown in below table and a total amount of degradation products (related substances) as well as single maximum impurity formed during storage was estimated by HPLC. The material was packed in inner clear polythene bag under nitrogen lined with black polythene bag, covered with triple laminated aluminium bag placed in HDPE drum and subjected to the conditions mentioned in the table 11.

[3] = Solubility studies, shake flask method with HPLC quantification; details: 37° C., 200 rpm, about 15 minutes; for solubility: thermodynamic from solid, read-out: Solubility (Conc.)
Procedure: • Shake flask method was used to determine the solubility of compound in various bio-relevant media of different pH and quantification is done using HPLC method. II. Experimental:
Following bio-relevant media and water were selected to study the solubility behaviour. • i. FaSSIF (Fasted state simulated intestinal fluid) of pH 6.5 • ii. FeSSIF (Fed state simulated intestinal fluid) of pH 5.0 • iii. Water.
Procedure: Test substance (1 mg) was taken in a test tube and medium [FaSSIF (pH 6.5) or FeSSIF (pH 5.0) or water] was added in the increment of 1 ml with shaking. After completion of addition of 10 ml of media, test tubes containing sample solution were put on a mechanical shaker set at 37° C. and 200 rpm for shaking up to about 15 minutes. After shaking, the content of each flask, it was filtered through […] filter. The filtered solution was analysed using HPLC for quantification. A sample solution of 1 mg in 10 ml of DMSO was used as reference standard for quantifying dissolved test substance in each media. The solubility in each media is expressed as μg/ml (Table-10).

[4] = Dissolution studies in suspension form; details: suspension: 10 mg active, Kollidon VA 64 40 mg, SLS 20 mg, purified water; batches 1A, 2A, 3A
Procedure: Suspension of compound of formula (II) and its salts with same composition was prepared using conventional homogenization technique. The % drug release was determined by comparing with 10 mg equivalent suspension (after sonication).

[5] = storage condition 1: 25 ± 2° C., 60 ± 5% RH, 0 months
[6] = storage condition 1: 25 ± 2° C., 60 ± 5% RH, 1 month
[7] = storage condition 1: 25 ± 2° C., 60 ± 5% RH, 2 months
[8] = storage condition 1: 25 ± 2° C., 60 ± 5% RH, 3 months
[9] = storage condition 1: 25 ± 2° C., 60 ± 5% RH, 6 months
[10] = storage condition 1: 25 ± 2° C., 60 ± 5% RH, 9 months
[11] = storage condition 2: 30 ± 2° C., 65 ± 5% RH, 0 months
[12] = storage condition 2: 30 ± 2° C., 65 ± 5% RH, 6 months
[13] = storage condition 3: 40 ± 2° C., 75 ± 5% RH, 0 months
[14] = storage condition 3: 40 ± 2° C., 75 ± 5% RH, 1 month
[15] = storage condition 3: 40 ± 2° C., 75 ± 5% RH, 2 months
[16] = storage condition 3: 40 ± 2° C., 75 ± 5% RH, 3 months
[17] = storage condition 3: 40 ± 2° C., 75 ± 5% RH, 6 months
[18] = storage condition 2: 30 ± 2° C., 65 ± 5% RH, 1 month
[19] = storage condition 2: 30 ± 2° C., 65 ± 5% RH, 2 months
[20] = storage condition 2: 30 ± 2° C., 65 ± 5% RH, 3 months

Related substances [2, 5]	single max. impurity [2, 5]	Related substances [2, 6]	single max. impurity [2, 6]	Related substances [2, 7]	single max. impurity [2, 7]	Related substances [2, 8]	single max. impurity [2, 8]	Related substances [2, 9]	single max. impurity [2, 9]	Related substances [2, 10]	single max. impurity [2, 10]	Related substances [2, 11]	single max. impurity [2, 11]	Related substances [2, 12]	single max. impurity [2, 12]	Related substances [2, 13]	single max. impurity [2, 13]	Related substances [2, 14]	% drug release after 15 minutes [4]	SMILES	further results
0.44%	0.26%	0.45%	0.27%	0.31%	0.19%	0.43%	0.26%	0.35%	0.21%	0.35%	0.21%	0.44%	0.26%	0.51%	0.31%	0.44%	0.26%	0.44%	6.3%	Cn1c(=O)c2c(CC(=O)Nc3nc(-c4ccc(F)c(C(F)(F)F)c4F)cs3)csc2n(C)c1=O.[K] [Potassium salt of compound (II), potassium salt of N-{4-[2,4-difluoro-3-(trifluoromethyl)phenyl]-1,3-thiazol-2-yl}-2-(1,3-dimethyl-2,4-dioxo-1,2,3,4-tetrahydrothieno[2,3-d]pyrimidin-5-yl)acetamide]	moisture content after gradual increase ([1]; 48 hrs at 25° C./60% RH, listed as potassium salt of compound of formula (II)): 3.5%; moisture content after gradual increase ([1]; 48 hrs at 25° C./80% RH, listed as potassium salt of compound of formula (II)): 6.6%; moisture content after gradual increase ([1]; 48 hrs at 25° C./90% RH, listed as potassium salt of compound of formula (II)): 16.0%; moisture content, initial value ([1]; listed as potassium salt of compound of formula (II)): 0.80%; moisture content increase ([1]; relative humidity of 60%): ≤ 2.7%; moisture content increase ([1]; relative humidity of 80%): ≤ 5.8%; moisture content increase ([1]; relative humidity of 90%): ≤ 15.2%; single max. impurity [2, 14]: 0.27%; Related substances [2, 15]: 0.32%; single max. impurity [2, 15]: 0.20%; Related substances [2, 16]: 0.46%; single max. impurity [2, 16]: 0.28%; Related substances [2, 17]: 0.52%; single max. impurity [2, 17]: 0.32%; Solubility (Conc.) ([3]; FaSSIF (pH 6.5)): 5.91 µg/mL; Solubility (Conc.) ([3]; FeSSIF (pH 5.0)): 5.53 µg/mL; Solubility (Conc.) ([3]; Water): 0.49 µg/mL
–	–	–	–	–	–	–	–	–	–	–	–	–	–	–	–	–	–	–	–	Cn1c(=O)c2c(CC(=O)Nc3nc(-c4ccc(F)c(C(F)(F)F)c4F)cs3)csc2n(C)c1=O.[K] [Potassium salt of N-{4-[2,4-difluoro-3-(trifluoromethyl)phenyl]-1,3-thiazol-2-yl}-2-(1,3-dimethyl-2,4-dioxo-1,2,3,4-tetrahydrothieno[2,3-d]pyrimidin-5-yl)acetamide in crystalline form]	moisture content after gradual increase ([1]; 48 hrs at 25° C./60% RH): about 3.5%; moisture content after gradual increase ([1]; 48 hrs at 25° C./80% RH): about 6.6%; moisture content after gradual increase ([1]; 48 hrs at 25° C./90% RH): about 16.0%; moisture content, initial value [1]: about 0.80%
0.22%	0.05%	0.28%	0.06%	0.36%	0.10%	0.38%	0.11%	0.51%	0.23%	0.75%	0.39%	0.22%	0.05%	0.71%	0.35%	0.22%	0.05%	0.54%	1.2%	Cn1c(=O)c2c(CC(=O)[N-]c3nc(-c4ccc(F)c(C(F)(F)F)c4F)cs3)csc2n(C)c1=O.[Na+] [Sodium salt of compound (II)]	Related substances [2, 18]: 0.30%; single max. impurity [2, 18]: 0.05%; Related substances [2, 19]: 0.40%; single max. impurity [2, 19]: 0.14%; Related substances [2, 20]: 0.47%; single max. impurity [2, 20]: 0.18%; single max. impurity [2, 14]: 0.22%; Related substances [2, 15]: 0.70%; single max. impurity [2, 15]: 0.36%; Related substances [2, 16]: 0.77%; single max. impurity [2, 16]: 0.39%; Related substances [2, 17]: 1.0%; single max. impurity [2, 17]: 0.58%; Solubility (Conc.) ([3]; FaSSIF (pH 6.5)): 1.07 µg/mL; Solubility (Conc.) ([3]; FeSSIF (pH 5.0)): 0.24 µg/mL; Solubility (Conc.) ([3]; Water): 0.13 µg/mL
–	–	–	–	–	–	–	–	–	–	–	–	–	–	–	–	–	–	–	0.40%	Cn1c(=O)c2c(CC(=O)Nc3nc(-c4ccc(F)c(C(F)(F)F)c4F)cs3)csc2n(C)c1=O [Compound (II), N-{4-[2,4-difluoro-3-(trifluoromethyl)phenyl]-1,3-thiazol-2-yl}-2-(1,3-dimethyl-2,4-dioxo-1,2,3,4-tetrahydrothieno[2,3-d]pyrimidin-5-yl)acetamide]	solubility ([3]; FaSSIF (fasted state simulated intestinal fluid), FaSSIF (pH 6.5)): 0.16 µg/mL (≈ 0.31 µM); solubility ([3]; FeSSIF (fed state simulated intestinal fluid), FeSSIF (pH 5.0)): 0.06 µg/mL (≈ 0.116 µM); solubility ([3]; Water): 0.1 µg/mL (≈ 0.194 µM)
